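Five compound concentrations were applied to cells in 96-well plates for 48 hours; endpoints were derived by simple linear interpolation of the resulting dose-response curve. Abbreviation: GI50, concentration required for 50% inhibition of growth. TGI marks complete inhibition of growth.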

This passage reports TGI and GI50 results from PubChem BioAssay (NCI).

Some test systems named below: HL-60(TB) leukemia; A498 renal; LOX IMVI melanoma; UO-31 renal; U251 CNS; HS 578T breast; SW-620 colon; HOP-62 NSCLC; HOP-92 NSCLC; SR leukemia.
Holding throughout (assay): DTP human tumour cell line panel, 48 h

As for `CCCCCCCCCCCCOC1C(CNC(=O)C2OC3OC(C)(C)OC3C2NC(=O)Nc2ccc(CC(=O)OC)cc2)OC2OC(C)(C)OC21` (centres undefined), the TGI in the assay on HL-60(TB) leukemia was above 47.9 µM; in the assay with A498 renal it was above 100 µM; with LOX IMVI melanoma, above 100 µM; in the assay with UO-31 renal, above 100 µM; in the assay with U251 CNS it was above 100 µM; with HS 578T breast it was above 100 µM. The TGI in the assay on SW-620 colon, in the assay with HOP-62 NSCLC, with HOP-92 NSCLC and in the assay with SR leukemia was above 100 µM in each case. Further, the GI50 in the assay with A498 renal was above 100 µM; in the assay on LOX IMVI melanoma, 47.7 µM; in the assay with UO-31 renal, above 100 µM; in the assay with U251 CNS it was 18.3 µM; in the assay on HS 578T breast it was above 100 µM; in the assay with SW-620 colon, above 100 µM. Further, the results for the GI50 in the assay with HOP-62 NSCLC, in the assay with HOP-92 NSCLC and in the assay on SR leukemia were above 50.2 µM, above 100 µM and above 100 µM, respectively.

For `CC(C)c1[nH]nc(C(N)=O)c1N=NN(C)C`, the TGI in the assay with HL-60(TB) leukemia is above 100 µM; in the assay on A498 renal it was above 100 µM; with LOX IMVI melanoma it was above 100 µM; in the assay with UO-31 renal it was 2.19 µM; in the assay on U251 CNS it was above 100 µM; in the assay with HS 578T breast it was above 100 µM. Moreover, the TGI was above 100 µM in the assay on SW-620 colon, above 100 µM in the assay with HOP-62 NSCLC, above 100 µM in the assay with HOP-92 NSCLC and 71.2 µM in the assay on SR leukemia.

For the molecule `c1ccc2sc(SCCSc3nc4ccccc4s3)nc2c1`, the TGI in the assay on HL-60(TB) leukemia, with A498 renal, in the assay with LOX IMVI melanoma, in the assay with UO-31 renal, in the assay with U251 CNS and in the assay on HS 578T breast was above 100 µM in each case. For the same molecule, the TGI in the assay with SW-620 colon, in the assay with HOP-62 NSCLC, with HOP-92 NSCLC and in the assay with SR leukemia was above 100 µM throughout.

In the case of `COc1ccc(C2=N[C@@H](Cc3ccccc3)C(=O)Nc3ccsc32)cc1`, the GI50 in the assay on HL-60(TB) leukemia is 3.91 µM; with A498 renal, 2.32 µM; with LOX IMVI melanoma, 6.48 µM; in the assay with UO-31 renal, 8.7 µM; with U251 CNS it was 4.51 µM; in the assay with HS 578T breast it was 3.24 µM. Also, the GI50 in the assay with SW-620 colon was 4.38 µM; in the assay on HOP-62 NSCLC it was 5.81 µM; in the assay with HOP-92 NSCLC it was 2.32 µM; with SR leukemia, 2.63 µM. Further, the TGI was 19.3 µM in the assay on HL-60(TB) leukemia; 9.04 µM in the assay on A498 renal; 22 µM with LOX IMVI melanoma; 34.6 µM in the assay with UO-31 renal; 20.5 µM in the assay on U251 CNS; 28.8 µM in the assay on HS 578T breast. Moreover, the TGI in the assay on SW-620 colon is 27.9 µM; in the assay on HOP-62 NSCLC it was 19.1 µM; in the assay on HOP-92 NSCLC it was 16.7 µM; in the assay on SR leukemia, 11.7 µM.
